Values quoted from earlier work, collected in patent US5574025A, “Inhibitors of prenyl-protein transferases” (Merck & Co., Inc., priority 1994, dated 1996).

System: Ras
Conditions: Hancock et al., Casey et al., Schafer et al.

Compound | Inhibition of Ras famesylation in vivo
CC[C@H](C)C(=O)O[C@H]1C[C@@H](C)C=C2C=C[C@H](C)[C@H](CC[C@@H]3C[C@@H](O)CC(=O)O3)[C@H]21 [Lovastatin] | Inhibition of Ras famesylation in vivo has been demonstrated
CC[C@H](C)C(=O)O[C@H]1CCC=C2C=C[C@H](C)[C@H](CC[C@@H]3C[C@@H](O)CC(=O)O3)[C@H]21 [compactin] | Inhibition of Ras famesylation in vivo has been demonstrated
